Measurements: US9908899B2 (BIOMARIN PHARMACEUTICAL INC., priority 2011, dated 2018)
Like-named read-outs stand apart in the source and are kept apart here.

Tests used:
C57BL/6J male mice = assay: Long term memory for object recognition (ORM); assay type: in vivo; settings: s.c. 3, 10, 30 mg/kg
Procedure: C57BL/6J male mice were handled 1-2 min for 5 days and were habituated to the experimental apparatus 5 min a day for 4 consecutive days in the absence of objects. […] 24-h later mice were tested for memory retention (5 min) using the object recognition memory task (ORM), in which a familiar object was replaced with a novel one. All training and testing trials were videotaped and analyzed by individuals blind to the treatment condition and the genotype of subjects. A mouse was scored as exploring an object when its head was oriented toward the object within a distance of 1 cm or when the nose was touching the object. The relative exploration time was recorded and expressed by a discrimination index [DI=(tnovel−tfamiliar)/(tnovel+tfamiliar)×100].

HDAC1 = HDAC1 (Homo sapiens (Human), UniProt Q13547); assay: HDAC activity inhibition assay, HDAC1; assay type: biochemical
Sequence of HDAC1 (Q13547 whole entry): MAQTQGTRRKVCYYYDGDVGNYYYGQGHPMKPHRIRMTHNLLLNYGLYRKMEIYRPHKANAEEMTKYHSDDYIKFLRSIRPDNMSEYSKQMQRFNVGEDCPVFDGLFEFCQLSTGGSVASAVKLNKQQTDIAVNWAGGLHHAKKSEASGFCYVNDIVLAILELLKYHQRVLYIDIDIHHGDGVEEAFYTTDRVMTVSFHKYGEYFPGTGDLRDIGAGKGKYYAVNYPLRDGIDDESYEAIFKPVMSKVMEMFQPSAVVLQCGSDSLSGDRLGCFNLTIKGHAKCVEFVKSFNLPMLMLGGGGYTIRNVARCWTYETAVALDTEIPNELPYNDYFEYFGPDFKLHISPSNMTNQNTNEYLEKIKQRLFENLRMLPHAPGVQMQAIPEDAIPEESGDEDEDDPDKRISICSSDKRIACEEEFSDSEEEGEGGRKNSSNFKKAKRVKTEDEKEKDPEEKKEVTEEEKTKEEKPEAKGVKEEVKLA
Procedure: (§1) The HDAC activity inhibition assay was performed as follows to determine the ability of a test compound to inhibit HDAC enzymatic activity. […] Following pre-incubation, Fluor-de-Lys™ substrate (Enzo Life Sciences, Plymouth Meeting, Pa., BML-KI104-0050) was added to a final concentration of 10 μM and plates were further incubated for 30 minutes at room temperature. […] IC50 values were calculated by using a sigmoidal dose-response (variable slope) equation in GraphPad Prism® 5 for Windows (GraphPad Software, La Jolla, Calif.).

HDAC2 = HDAC2 (Homo sapiens (Human), UniProt Q92769); assay: HDAC activity inhibition assay, HDAC2; assay type: biochemical
Sequence of HDAC2 (Q92769 whole entry): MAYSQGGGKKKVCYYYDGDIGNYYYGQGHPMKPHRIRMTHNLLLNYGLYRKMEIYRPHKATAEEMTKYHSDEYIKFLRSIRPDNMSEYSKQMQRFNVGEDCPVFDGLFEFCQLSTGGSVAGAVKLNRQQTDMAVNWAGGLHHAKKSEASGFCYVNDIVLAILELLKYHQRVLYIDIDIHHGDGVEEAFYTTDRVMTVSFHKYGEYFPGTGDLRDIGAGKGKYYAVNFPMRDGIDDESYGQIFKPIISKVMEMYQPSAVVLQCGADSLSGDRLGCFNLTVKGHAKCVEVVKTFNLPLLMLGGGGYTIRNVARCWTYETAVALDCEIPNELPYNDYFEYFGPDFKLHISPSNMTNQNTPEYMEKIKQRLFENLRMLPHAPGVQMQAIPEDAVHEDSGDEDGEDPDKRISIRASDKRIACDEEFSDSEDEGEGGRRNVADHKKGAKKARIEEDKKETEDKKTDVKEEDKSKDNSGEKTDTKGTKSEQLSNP
Procedure: as §1

HDAC3/NcoR2 = HDAC3/NcoR2 (Homo sapiens (Human), UniProt O15379); assay: HDAC activity inhibition assay, HDAC3/NcoR2; assay type: biochemical
Sequence of HDAC3/NcoR2 (O15379 whole entry): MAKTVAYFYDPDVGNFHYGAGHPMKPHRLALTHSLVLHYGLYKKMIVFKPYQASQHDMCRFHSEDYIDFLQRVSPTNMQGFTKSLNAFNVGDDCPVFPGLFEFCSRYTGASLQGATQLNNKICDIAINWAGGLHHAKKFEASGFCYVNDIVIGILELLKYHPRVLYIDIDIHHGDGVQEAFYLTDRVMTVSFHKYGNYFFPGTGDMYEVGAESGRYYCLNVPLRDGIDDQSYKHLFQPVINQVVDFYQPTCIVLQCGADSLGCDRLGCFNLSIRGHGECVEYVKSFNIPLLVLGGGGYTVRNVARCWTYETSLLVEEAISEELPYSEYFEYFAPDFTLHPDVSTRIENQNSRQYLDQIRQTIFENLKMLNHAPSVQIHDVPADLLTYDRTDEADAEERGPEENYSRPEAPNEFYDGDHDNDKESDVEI
Sequence of HDAC3/NcoR2 (Q9Y618 395-489 partner): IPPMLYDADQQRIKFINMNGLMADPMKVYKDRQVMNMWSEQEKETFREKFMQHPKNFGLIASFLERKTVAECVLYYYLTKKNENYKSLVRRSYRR
Procedure: as §1

[1] = system: GM 15850(lymphoblastoid cells line) cells; assay: In-cell deacetylase inhibition assay (DAC assay); assay type: cell-based; settings: GM 15850 cells, 4 h incubation, read-out: 850 DAC (in-cell deacetylase inhibition IC50)
Procedure: Compound dilutions were made in 100% DMSO followed by parallel dilution in media with 2% DMSO. 10 μl of the compound dilutions were added to the cells to achieve the desired concentrations. The final concentration of DMSO in each well was 0.2%. The cells were incubated for 4 h at 37° C. with 5% CO2. After incubation, the cells were centrifuged down and the supernatant was removed. […] The reaction was stopped after 30 min incubation by addition of 50 μL developer (6 mg/mL trypsin in HDAC assay buffer). The reaction was allowed to develop for 30 min at room temperature and the fluorescence signal was detected using a fluorometer (Spectramax M2, Molecular Devices, Sunnyvale, Calif.) with excitation and emission wavelengths of 360 nm and 470 nm respectively. The data was fitted to a sigmoidal dose response equation with variable slope in GraphPad Prism 5.0 (GraphPad Software, La Jolla, Calif.) to determine IC50. Bottom and top of the curve were fixed to the average fluorescence response of control wells with no cells and cells but no compound respectively.

[2] = Table 1, 2 hours pre-incubation

SMILES	effect of dose on long-term memory for object recognition (C57BL/6J male mice)	IC50 (HDAC1; [2]) [µM]	IC50 (HDAC2; [2]) [µM]	IC50 (HDAC3/NcoR2; [2]) [µM]	IC50 ([1]; Homo sapiens, GM15850) [µM]	further results
Nc1cc(F)ccc1NC(=O)/C=C/c1cnn(C/C=C/c2ccccc2)c1 [D2, (E)-N-(2-amino-4-fluorophenyl)-3-(1-cinnamyl-1H-pyrazol-4-yl)acrylamide]	no effect of dose					
Cc1nn(C/C=C/c2ccccc2)c(C)c1/C=C/C(=O)Nc1ccccc1N [G2, (E)-N-(2-aminophenyl)-3-(1-cinnamyl-3,5-dimethyl-1H-pyrazol-4-yl)acrylamide]		1 to 5	1 to 5	< 1	10 to 20	
CN1CCC(Cn2cc(/C=C/C(=O)Nc3ccccc3N)cn2)CC1 [G1, (E)-N-(2-aminophenyl)-3-(1-((1-methylpiperidin-4-yl)methyl)-1H-pyrazol-4-yl)acrylamide]		1 to 5	1 to 5	< 1	1 to 5	
Cc1ccc(C(=O)NCCCCCC(=O)Nc2ccc(F)cc2N)cc1 [RGFP 136, reference compound]	Dose dependent effects					
Cn1cc(/C=C/C(=O)Nc2cc(F)ccc2N)cn1 [C3]						IC50 (HDAC1): 1 to 5 µM; IC50 (HDAC2): 1 to 5 µM; IC50 (HDAC3/NcoR2): < 1 µM; IC50 [1]: > 20 µM
